Data: publication PMC3914206

Tests used:
panel of 442 kinases [1] = target: T1, panel of 442 kinases (Homo sapiens, UniProt P42684); assay type: binding; details: Compound Concentration 10 µM
T1 construct: purchased KINOMEscan
From the text: (§1) We assessed the selectivity of members of this scaffold using the KINOMEscan methodology across a near comprehensive panel of 442 kinases [[18,27]].

panel of 442 kinases [2] = target: T2, panel of 442 kinases (Homo sapiens, UniProt P21709); assay type: binding; details: Compound Concentration 10 µM
T2 construct: purchased KINOMEscan
T2 sequence (P21709 26-976): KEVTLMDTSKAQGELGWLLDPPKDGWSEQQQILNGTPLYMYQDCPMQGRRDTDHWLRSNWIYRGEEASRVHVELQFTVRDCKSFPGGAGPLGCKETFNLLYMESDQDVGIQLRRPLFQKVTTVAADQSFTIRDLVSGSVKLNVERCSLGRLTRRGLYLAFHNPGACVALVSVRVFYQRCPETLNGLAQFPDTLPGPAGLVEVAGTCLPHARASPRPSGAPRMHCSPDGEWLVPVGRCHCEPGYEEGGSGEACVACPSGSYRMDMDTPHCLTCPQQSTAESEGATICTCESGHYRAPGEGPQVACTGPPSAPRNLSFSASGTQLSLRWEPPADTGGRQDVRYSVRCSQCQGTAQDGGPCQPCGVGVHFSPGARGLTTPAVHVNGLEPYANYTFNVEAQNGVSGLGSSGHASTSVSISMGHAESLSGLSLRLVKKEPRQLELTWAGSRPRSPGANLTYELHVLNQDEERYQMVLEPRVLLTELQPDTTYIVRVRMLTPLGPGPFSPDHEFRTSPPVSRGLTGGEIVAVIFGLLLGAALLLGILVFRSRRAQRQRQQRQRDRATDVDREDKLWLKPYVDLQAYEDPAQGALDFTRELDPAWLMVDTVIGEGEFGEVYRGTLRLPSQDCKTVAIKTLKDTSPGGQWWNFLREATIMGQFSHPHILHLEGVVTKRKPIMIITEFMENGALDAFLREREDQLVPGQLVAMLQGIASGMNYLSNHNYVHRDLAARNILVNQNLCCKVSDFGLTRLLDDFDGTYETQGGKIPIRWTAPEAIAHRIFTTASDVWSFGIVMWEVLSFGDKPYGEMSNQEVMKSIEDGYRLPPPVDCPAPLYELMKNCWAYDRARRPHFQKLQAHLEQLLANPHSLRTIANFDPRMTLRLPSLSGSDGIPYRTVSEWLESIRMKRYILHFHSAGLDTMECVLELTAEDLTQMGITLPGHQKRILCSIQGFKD
From the text: as §1

T1 sequence (P42684 whole entry): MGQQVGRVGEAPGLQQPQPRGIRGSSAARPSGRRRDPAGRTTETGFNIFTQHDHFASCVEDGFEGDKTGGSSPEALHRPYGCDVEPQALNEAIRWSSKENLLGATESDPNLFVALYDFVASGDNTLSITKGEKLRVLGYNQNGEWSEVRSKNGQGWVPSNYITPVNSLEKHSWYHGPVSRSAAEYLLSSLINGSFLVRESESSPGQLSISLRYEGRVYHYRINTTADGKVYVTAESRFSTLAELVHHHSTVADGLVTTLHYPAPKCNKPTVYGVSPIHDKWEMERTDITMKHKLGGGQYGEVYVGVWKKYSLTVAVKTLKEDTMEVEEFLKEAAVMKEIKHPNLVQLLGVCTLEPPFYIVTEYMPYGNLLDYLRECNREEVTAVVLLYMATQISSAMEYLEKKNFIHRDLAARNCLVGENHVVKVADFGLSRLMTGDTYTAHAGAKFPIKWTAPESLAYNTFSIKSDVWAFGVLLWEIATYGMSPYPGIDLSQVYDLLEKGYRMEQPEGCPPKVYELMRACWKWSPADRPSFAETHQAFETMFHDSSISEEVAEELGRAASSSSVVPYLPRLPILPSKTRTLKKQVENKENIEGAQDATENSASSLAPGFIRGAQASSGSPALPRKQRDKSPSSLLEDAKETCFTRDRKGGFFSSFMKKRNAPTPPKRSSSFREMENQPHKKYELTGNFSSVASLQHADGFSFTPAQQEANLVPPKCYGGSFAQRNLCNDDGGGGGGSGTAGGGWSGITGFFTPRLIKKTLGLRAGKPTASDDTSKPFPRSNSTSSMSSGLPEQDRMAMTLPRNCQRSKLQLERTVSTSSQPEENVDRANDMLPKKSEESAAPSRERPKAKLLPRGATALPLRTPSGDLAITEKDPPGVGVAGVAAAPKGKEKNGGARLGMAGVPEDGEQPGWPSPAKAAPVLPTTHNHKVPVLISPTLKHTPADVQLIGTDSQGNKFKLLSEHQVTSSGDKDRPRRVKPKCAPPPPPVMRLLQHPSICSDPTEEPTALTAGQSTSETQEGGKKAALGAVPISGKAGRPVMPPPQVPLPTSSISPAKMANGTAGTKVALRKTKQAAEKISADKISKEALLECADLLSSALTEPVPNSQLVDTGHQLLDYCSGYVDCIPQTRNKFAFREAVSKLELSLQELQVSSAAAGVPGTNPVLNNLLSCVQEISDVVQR

In the case of `CCOc1cc(C(=O)N2CCC(N3CCN(C)CC3)CC2)ccc1Nc1ncc2c(n1)N(C1CCCC1)c1ccccc1C(=O)N2C` [Compound 26], the “KINOMEscan: ABL2” value (panel of 442 kinases [1]) is reported as 100 and the “KINOMEscan: EPHA1” value (panel of 442 kinases [2]) is reported as 98.

`COc1cc(C(=O)N2CCC(N3CCN(C)CC3)CC2)ccc1Nc1ncc2c(n1)N(C1CCCC1)c1ccccc1C(=O)N2C` [Compound 25, 11-cyclopentyl-2-((2-methoxy-4-(4-(4-methylpiperazin-1-yl)piperidine-1-carbonyl)phenyl)amino)-5-methyl-5H-benzo[e]pyrimido[5,4-b][1,4]diazepin-6(11H)-one] was tested, and the “KINOMEscan: ABL2” value (panel of 442 kinases [1]) was 100 and the “KINOMEscan: EPHA1” value (panel of 442 kinases [2]) was 100.

`COc1cc(C(=O)N2CCC(N3CCN(C)CC3)CC2)ccc1Nc1ncc2c(n1)N(C)c1ccccc1C(=O)N2C` [15 (LRRK2-IN-1)] was tested, and the “KINOMEscan: ABL2” value (panel of 442 kinases [1]) was 97 and the “KINOMEscan: EPHA1” value (panel of 442 kinases [2]) was 100.
